Test results published in patent publication US12612465B2, “Formulations comprising PCSK9 specific monoclonal antibodies” (Amgen Inc., priority 2012, dated 2026).

Key:
human PCSK9 = target: T1, human PCSK9 (Homo sapiens, UniProt Q8NBP7, E620G/G670E/V474I); experiment: Serum lipids in C57BL/6 mice expressing human PCSK9 by AAV; type: in vivo, mouse; conditions: 30 mg/kg IV bolus
T1 construct: made in house
Description: Briefly, 120 C57BL/6 mice expressing human PCSK9 were generated by infection with an engineered adeno associated virus (AAV) coding for human PCSK9, resulting in elevated levels of circulating low density lipoprotein cholesterol (LDL-C). Serum cholesterol analysis was performed using the Cobas Integra 400 plus chemistry analyzer (Roche Diagnostics, Indianapolis, Ind.). Animals were randomized into treatment groups with similar levels of non-HDL-C (LDL-C and VLDL-C), HDL-C and TC. On treatment day 0 (T=0) a subset of mice was euthanized and serum collected to establish that day's baseline levels. Remaining mice were then administered 11F1, 8A3 or anti-keyhole limpethemocyanin (KLH) IgG2 control antibody at 30 mg/kg. via tail vein injection. At days 1 through 5 following injection, subsets of mice were euthanized and whole blood was collected from the vena cava and allowed to coagulate for 30 minutes at room temperature. Following centrifugation at 12,000 rpm with a bench top centrifuge for 10 minutes, serum was collected. Serum cholesterol analysis was performed using the Cobas Integra 400 plus chemistry analyzer.
All cholesterol results were expressed as the mean±standard error of the mean. All pharmacokinetic data were expressed as the mean±standard deviation. The p value of 0.05, determined by 1-way ANOVA was used as a threshold to determine statistical significance between the anti-KLH IgG2 control antibody injected animals and those dosed with anti-PCSK9 antibody at the same time point.

[1] = Pharmacokinetics in mice expressing human PCSK9 by AAV; type: in vivo, mouse; conditions: 30 mg/kg intravenous
Description: Serum concentrations of antibody were determined using a sandwich ELISA assay. Polyclonal goat anti-human Fc IgG and an HRP-labeled goat anti-human IgG Fcγ polyclonal reagent (both from Jackson ImmunoResearch Laboratories Inc, West Grove, Pa.) were used as the capture and the detection antibody, respectively. A 3,3′,5,5′ tetramethylbenzidine (TMB) substrate solution reacted with peroxide, and in the presence of horse radish peroxidase (HRP), created a colorimetric signal that was proportional to the amount of the respective anti-PCSK9 antibody bound by the capture reagent. The intensity of the color (optical density, OD) was measured at 450 nm minus 650 nm using a microplate reader (Spectra Max Plus 384). Data was analyzed using Watson version 7.0.0.01 (Thermo Scientific, Waltham, Mass.) data reduction package with a Logistic (auto-estimate) regression of separately prepared standard curves. The lower limit of quantification (LLOQ) for the assay was […].
Non-compartmental analysis (NCA) was performed on serum concentrations using the pre-determined nominal time points for each subject using WinNonlin Enterprise, version 5.1.1 (Pharsight, St. Louis, Mo.). […] NCA parameters reported include: apparent half-life (t½), area under the serum concentration-time curve from time zero to the last measured concentration (AUC0-t), and apparent serum clearance (CL0-t). […]

PCSK9 = experiment: Serum lipids after a single subcutaneous dose in cynomolgus monkeys; type: in vivo, cynomolgus monkey; conditions: 0.5 mg/kg single SC
From the text: Briefly, naive male cynomolgus monkeys were acclimated to their environment for at least 2 weeks prior to experimentation. Animals were randomized into treatment groups based on a pre-screen of their serum TC, HDL-C, LDL-C, and triglyceride levels, and their body weight. After 1 week, animals were fasted overnight, and bled from the peripheral vasculature (cephalic or saphenous vein), for measurement of baseline serum lipid levels at a time point designated T=0. […] Fasting blood samples were then collected from animals at designated time points over a 45 day period.
At specified time points, blood was collected from animals under overnight fasting conditions from the peripheral vasculature (cephalic or saphenous vein). Whole blood was allowed to coagulate for 30 minutes at room temperature. Following centrifugation at 3,000 rpm for 20 minutes, serum was collected. Direct serum cholesterol analysis was performed using the Cobas Integra 400 analyzer (Roche Diagnostics Inc, Indianapolis, Ind.). Apolipoprotein B serum levels were determined at specified time points (day 0, 3, 6, 15, 24 and 33) by Anilytics, Md., with the following methodology. A 17 μL aliquot of the sample (no preparation) was used for analysis with a Hitachi 717 Analyzer using a 6 points standard curve. If the initial value of the sample was higher than the standard curve linearity, then the sample was diluted and repeated with the result multiplied by the appropriate dilution factor. The reagents for the assay (APO-B Reagent Kit #86071, Antibody Set #86060, Control Set #86103) were obtained from DiaSorin (Stillwater, Minn.).
A statistical model that considers baseline as a covariate and treatment group as a fixed effect was fit to the log transformed response at each time point for LDL-C, HDL-C, TC, and triglycerides. Tukey's multiple comparison correction was applied to adjust the pair wise comparisons at each time point. The statistical significance was evaluated at alpha=0.05 using adjusted p-values.

T1 sequence (Q8NBP7 153-692 V474I/E620G/G670E): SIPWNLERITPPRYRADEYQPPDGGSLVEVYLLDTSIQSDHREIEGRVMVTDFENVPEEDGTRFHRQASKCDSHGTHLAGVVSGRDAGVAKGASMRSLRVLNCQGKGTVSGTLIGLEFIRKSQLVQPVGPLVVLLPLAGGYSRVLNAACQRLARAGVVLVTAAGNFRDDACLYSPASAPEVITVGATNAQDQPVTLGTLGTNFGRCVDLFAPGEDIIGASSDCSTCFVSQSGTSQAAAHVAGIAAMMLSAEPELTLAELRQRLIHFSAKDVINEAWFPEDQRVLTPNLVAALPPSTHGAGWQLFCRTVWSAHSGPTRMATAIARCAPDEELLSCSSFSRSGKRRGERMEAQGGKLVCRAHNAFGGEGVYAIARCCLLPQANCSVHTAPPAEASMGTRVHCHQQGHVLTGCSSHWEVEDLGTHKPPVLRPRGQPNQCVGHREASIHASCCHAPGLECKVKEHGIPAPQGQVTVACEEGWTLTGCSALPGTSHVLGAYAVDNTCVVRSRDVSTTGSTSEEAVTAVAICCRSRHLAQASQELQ

## 11F1: anti-PCSK9 ABP, light/heavy variable region SEQ ID NO 465/463 [Antibody 11F1]
Human PCSK9; any time point
  lowering of HDL-C vs control animals: No significant lowering of HDL-C
Human PCSK9; day 4 only
  lowering of TC vs control animals: 22%
Human PCSK9; significant at days 1, 2 and 4 post-injection
  maximum lowering of serum non-HDL-C vs control animals: 59%
[1]
  AUC0-t exposures, estimated CL0-t and apparent half-lives of 11F1 vs 8A3: equivalent
PCSK9
  TC returned to levels similar to control animals: ≤ 27 days
  maximal LDL-C lowering as compared to control animals: 57%
  maximal TC lowering as compared to control animals: 27%
  maximal lowering of LDL-C vs anti-KLH IgG2 control at the same time point (change): −57%
  serum HDL-C vs anti-KLH IgG2 control: No statistically significant changes
  time of maximal LDL-C lowering after injection: 9 days
  time of maximal TC lowering after injection: 9 days
  triglycerides levels vs anti-KLH IgG2 control: No statistically significant changes
PCSK9; days 3, 6, 15, 24 and 33
  serum ApoB vs anti-KLH IgG2 control: ApoB lowering at days 3 to 24
PCSK9; each time point, alpha=0.05
  HDL-C or triglyceride levels vs anti-KLH IgG2 control: not significantly different
